Reference: patent US9944597B2, “Polysubstituted pyrroles having microtubule-disrupting, cytotoxic and antitumor activities and methods of use thereof” (THE BOARD OF REGENTS OF THE UNIVERSITY OF TEXAS SYSTEM, priority 2013, dated 2018)
Where two headings read alike, the source gives them in different places.

Columns and labels:
[1] = system: MDA-MB-435 (human melanoma cancer cells); assay: Antiproliferative SRB assay, MDA-MB-435; assay type: cell-based; settings: read-out: MDA-MB-435 Anti-Proliferative Activity, IC50
Method: (§1) Cell Culture. Various representative cancer and other cell lines were sourced and grown as described previously [Mooberry, S. L., et al., Mol. Pharm. 72, 132-140 (2007)]. MDA-MB-435 (human melanoma cancer cells), and MDA-MB-231 (human breast cancer cells) were grown in IMEM Richter's Medium (Life Technologies, Grand Island, N.Y.) with 10% FBS (Hyclone, Logan, Utah) and 25 μg/mL gentamicin sulfate (Life Technologies). A-10 (embryonic rat vascular smooth muscle cells) and HeLa (human cervical cancer cells), SK-OV-3 (human ovarian cancer cells) and SK-OV-3-MDR-1-M6/6 (a clone of the SK-OV-3 that was generated from SK-OV-3 cells by adenovirus-mediated expression of MDR1) were grown in Basal Medium Eagle (BME, Sigma-Aldrich, St. Louis, Mo.) containing Earle's salts, 50 μg/ml gentamicin sulfate, and 10% FBS. HeLa cells (a single-cell clone derived from transduction of HeLa cells with wild-type (WT) βIII-tubulin) were grown in Dulbecco's Modified Eagle's Medium (DMEM, Life Technologies) containing 50 μg/mL gentamicin sulfate and 10% FBS.
(§2) Antiproliferative Effects. The pyrrole compounds were evaluated for their antiproliferative effects in a panel of cancer cell lines. Cells were plated into 96-well plates at predetermined densities and allowed to attach and proliferate for 24 hr, and then the compounds were added. After a 48 hr exposure to the compounds, the cells were fixed with trichloroacetic acid and cellular protein was determined using the sulforhodamine B (SRB) assay (Skehan et al., J. Natl. Cancer Inst. 82, 1107-12, (1990); Boyd and Paull Drug Devel. Res. 34, 91-109, (1995)). Concentration response curves were constructed, and the IC50 (the concentration required to inhibit proliferation by 50%) values were determined from the linear portions of the log concentration-response curves as described previously [Tinley, T. L., et al., Cancer Res. 63, 3211-3220, (2003)] as shown in Table 48.

[2] = system: HeLa (human cervical cancer cells); assay: Antiproliferative SRB assay, HeLa; assay type: cell-based
Method: as §1, §2
(§3) First, drug resistance mediated by the expression of βIII tubulin was evaluated in an isogenic HeLa cell line pair. Expression of the βIII tubulin isotype is associated with clinical drug resistance to the taxanes in ovarian cancer, non small-cell lung cancer and breast cancer [Galmarini, C. M., et al., Clin. Cancer Res. 14, 4511-4516 (2008)]. Secondly, drug resistance mediated by the expression of the drug efflux pump protein, Pgp, was evaluated in the isogenic SK-OV-3 cell line pair. The expression of Pgp can lead to lower intracellular drug concentrations and diminished cytotoxic effects both in vitro and in vivo. All tubulin-binding anticancer drugs used currently in the clinic, except cabazitaxel, are substrates for Pgp, thus limiting their utility in drug resistant tumors [Penson, R. T., et al., Gynecol. Oncol. 93, 98-106 (2004)]. Differences in sensitivity between the parent and transformed cell line, indicative of resistance, was determined by calculating relative resistance (Rr) values in the two pairs of isogenic cell lines (dividing the IC50 of the expressing cell line by the IC50 of the parental cell line).

[3] = system: SK-OV-3 (human ovarian cancer cells); assay: Antiproliferative SRB assay, SK-OV-3; assay type: cell-based
Method: as §1, §2
as §3, with “The expression of Pgp can lead to lower intracellular drug concentrations and diminished cytotoxic effects both in vitro and in vivo.” left out

[4] = system: HeLa WT-β-III cells; assay: Antiproliferative SRB assay, βIII-tubulin expressing HeLa; assay type: cell-based, human; settings: for IC50: Table 49, βIII tubulin expressing line, 48 hr, SRB assay; for Rr (β-III): relative resistance: IC50 of expressing line divided by IC50 of parental HeLa
Method: as §1, §2, §3

[5] = system: SK-OV-3-MDR-1-6/6 cells; assay: Antiproliferative SRB assay, Pgp expressing SK-OV-3; assay type: cell-based, human; settings: for IC50: Table 49, Pgp expressing line, 48 hr, SRB assay; for Rr (Pgp): relative resistance: IC50 of expressing line divided by IC50 of parental SK-OV-3
Method: as §1, §2
as §3, with “The expression of Pgp can lead to lower intracellular drug concentrations and diminished cytotoxic effects both in vitro and in vivo.” left out

[6] = system: A-10 cells; assay: Cellular microtubule loss by indirect immunofluorescence; assay type: cell-based, rat; settings: read-out: EC50 Values (nM) for Microtubule Loss in A-10 cells
Method: The effects of representative compounds on cellular microtubules were evaluated in A-10 (embryonic rat vascular smooth muscle cell line) cells using indirect immunofluorescence techniques as previously described (Tinley et al., Cancer Res. 63, 3211-20 (2003)). Cells were visualized using a Nikon Eclipse 80i fluorescence microscope and NIS Elements software. Changes in both interphase and mitotic microtubules were noted and photographed. The EC50 values, the concentration that causes approximately 50% loss of interphase microtubules was determined by evaluating a range of concentrations of each compound and the percent cellular microtubule depolymerization that was observed visually at each concentration was noted.
Microtubules were visualized by indirect immunofluorescence using a β-tubulin antibody, and the DNA was visualized with DAPI. A representative concentration response curve for NT-7-16 is also shown in FIG. 1 that was used to calculate its corresponding EC50 for microtubule loss. Concentration response curves for microtubule loss were plotted using data from at least three experiments for each compound and the corresponding EC50 values for microtubule loss are presented in Table 50.

[7] = Homo sapiens, MDA-MB-435, Table 48, 48 hr exposure, SRB assay
[8] = Homo sapiens, MDA-MB-435, Table 52
[9] = Homo sapiens, HeLa, Table 48, 48 hr exposure, read-out: HeLa Anti-Proliferative Activity, IC50
[10] = Homo sapiens, HeLa, Table 49, parental line, 48 hr, read-out: HeLa IC50
[11] = Homo sapiens, SK-OV-3, Table 48, 48 hr exposure, read-out: SK-OV-3 Anti-Proliferative Activity, IC50
[12] = Homo sapiens, SK-OV-3, Table 49, parental line, 48 hr, read-out: SK-OV-3 IC50
[13] = Rattus norvegicus, A10, Table 50, concentration causing approximately 50% loss of interphase microtubules
[14] = Table 49, parental line, 48 hr, read-out: HeLa IC50
[15] = Table 49, parental line, 48 hr, read-out: SK-OV-3 IC50
[16] = Table 50, concentration causing approximately 50% loss of interphase microtubules

IC50 [1, 7] [nM]	IC50 [1, 8] [nM]	IC50 [2, 9] [nM]	IC50 [3, 11] [nM]	IC50 ([4]; Homo sapiens, HeLa) [nM]	IC50 ([5]; Homo sapiens, SK-OV-3) [nM]	EC50 [6, 13] [nM]	melting point [°C]	Compound	IC50 [2, 10] [nM]	IC50 [3, 12] [nM]	Rr (β-III) [4]	Rr (Pgp) [5]	other results
23.9 ± 1.2	23.9 ± 1.2	14.8 ± 0.2	16.4 ± 0.9	26 ± 1	10.4 ± 0.9	55		CCOC(=O)c1[nH]c(/C=C\C(=O)OC)c(-c2ccc(OC)c(OC)c2OC)c1Br [Example 8a, Cis-3-Bromo-5-(3-methoxy-3-oxoprop-1-en-1-yl)-4-(2,3,4-trimethoxyphenyl)-1H-pyrrole-2-carboxylic acid ethyl ester]	14.8 ± 0.2	16.4 ± 0.9	1.8	0.6	
9.3 ± 0.3	9.3 ± 0.3	10.9 ± 0.3	22.3 ± 0.5	19.4 ± 0.4	26.7 ± 0.3	24		CCOC(=O)c1[nH]c(/C=C/C(=O)OC)c(-c2ccc(OC)c(OC)c2OC)c1Br [Example 8b, Trans-3-Bromo-5-(3-methoxy-3-oxoprop-1-en-1-yl)-4-(2,3,4-trimethoxyphenyl)-1H-pyrrole-2-carboxylic acid ethyl ester]	10.9 ± 0.3	22.3 ± 0.5	1.8	1.2	

The next lines start with the compound.

Compound	IC50 [1, 7] [nM]	IC50 [1, 8] [nM]	IC50 [2, 9] [nM]	IC50 [3, 11] [nM]	IC50 ([4]; Homo sapiens, HeLa) [nM]	IC50 ([5]; Homo sapiens, SK-OV-3) [nM]	EC50 [6, 13] [nM]	melting point [°C]	IC50 [2, 10] [nM]	IC50 [3, 12] [nM]	Rr (β-III) [4]	Rr (Pgp) [5]	other results
CCOC(=O)c1[nH]c(C=NO)c(-c2ccc(OC)c(OC)c2OC)c1Cl (mixture of isomers) [Example 21, Cis/Trans-3-chloro-4-(2,3,4-trimethoxyphenyl)-5-oximino-1H-pyrrole 2-carboxylic acid ethyl ester]	87.7 ± 10	87.7 ± 10	123 ± 6.5	175 ± 30.4	109 ± 9.5	419 ± 30.4	170	135 to 140	123 ± 6.5	175 ± 30.4	0.9	1.9	
CCOC(=O)c1cc(-c2ccc(OC)c(OC)c2OC)c(C=O)[nH]1 [Example 1, 4-(2,3,4-trimethoxyphenyl)-5-formyl-1H-pyrrole 2-carboxylic acid ethyl ester]								138 to 140					
CCOC(=O)c1[nH]c(CO)c(-c2ccc(OC)c(OC)c2OC)c1Br [Example 5, 3-Bromo-5-(hydroxymethyl)-4-(2,3,4-trimethoxyphenyl)-1H-pyrrole 2-carboxylic acid ethyl ester]	25.7 ± 0.8	25.7 ± 0.8	33.4 ± 0.8	37.4 ± 1.3	27.4 ± 3.1	46.6 ± 2.1	76		33.4 ± 0.8	37.4 ± 1.3	0.8	1.2	
C=Cc1[nH]c(C(=O)OCC)c(Br)c1-c1ccc(OC)c(OC)c1OC [Example 7, 3-Bromo-5-vinyl-4-(2,3,4-trimethoxyphenyl)-1H-pyrrole 2-carboxylic acid ethyl ester]	17.6 ± 1	17.6 ± 1	23.8 ± 1.7	26.6 ± 1.1	20.5 ± 0.8	28.1 ± 1.9	54		23.8 ± 1.7	26.6 ± 1.1	0.9	1.1	
CCOC(=O)c1[nH]c(C(=O)O)c(-c2ccc(OC)c(OC)c2OC)c1Br [Example 9, 3-Bromo-4-(2,3,4-trimethoxyphenyl)-5-carboxy-1H-pyrrole 2-carboxylic acid ethyl ester]	1530	1530	2340				4600	173 to 175	2340				
CCOC(=O)c1[nH]c(C=NO)c(-c2ccc(OC)c(OC)c2OC)c1Br [Example 10c]											1.4	1.8	IC50 ([1]; Table 52): 14 ± 0.8 nM; IC50 [2, 14]: 18 ± 0.9 nM; IC50 [3, 15]: 23.1 ± 0.5 nM; IC50 [4]: 25 ± 1.4 nM; IC50 [5]: 41.6 ± 1.9 nM; EC50 [6, 16]: 56.2 nM; EC50 ([6]; Table 52): 56.2 nM
CCOC(=O)c1[nH]c(CNCCNC(=O)OC(C)(C)C)c(-c2ccc(OC)c(OC)c2OC)c1Br [Example 19, 3-Bromo-5-[((N-2-tert-butoxycarbonylamino)-ethylamino)-methyl]-4-(2,3,4-trimethoxyphenyl)-1H-pyrrole 2-carboxylic acid ethyl ester]								235 to 237					
CCOC(=O)c1[nH]c(CNCCN)c(-c2ccc(OC)c(OC)c2OC)c1Br [Example 20, 5-[N-((2-Aminoethyl)amino)methyl]-3-Bromo-4-(2,3,4-trimethoxyphenyl)-1H-pyrrole 2-carboxylic acid ethyl ester]								135 to 137					
Cis-3-Bromo-4-(2,3,4-trimethoxyphenyl)-5-oximino-1H-pyrrole 2-carboxylic acid ethyl ester [Example 10b]											1.1	1.5	IC50 ([1]; Table 48, 48 hr exposure, SRB assay): 25.3 ± 3.1 nM; IC50 ([1]; Table 52): 25.3 ± 3.1 nM; IC50 ([2]; Table 48, 48 hr exposure, read-out: HeLa Anti-Proliferative Activity, IC50): 29.4 ± 1 nM; IC50 [2, 14]: 29.4 ± 1 nM; IC50 ([3]; Table 48, 48 hr exposure, read-out: SK-OV-3 Anti-Proliferative Activity, IC50): 33.7 ± 1.3 nM; IC50 [3, 15]: 33.7 ± 1.3 nM; IC50 [4]: 31.3 ± 0.5 nM; IC50 [5]: 49.6 ± 2.4 nM; EC50 [6, 16]: 108 nM; EC50 ([6]; Table 52): 108 nM
